According to US20180110785A1, “METHODS AND COMPOSITIONS FOR AMELIORATING SYMPTOMS ASSOCIATED WITH CHROMOSOMAL ABNORMALITIES” (priority 2014, published 2018):
Several values for one entry are separate records, joined by “and”; a condition that tells them apart may be missing. Equal entries are not always repeated. Entries after “also recorded” stand apart in the source; their conditions may differ. Where two headings read alike, the source gives them in different places.

Legend:
[1] = system: Schaffer collateral-CA1 synapses of Ts65Dn mice; settings: cited from earlier work
primary GCP cultures = settings: compared with Shh-Np; cited from earlier work
Ts65Dn mice [2] = system: Ts65Dn mice; parameters: cerebellar cross-sectional area at the midline and GC density: dose or concentration left out as unconfirmed; settings: cited from earlier work
Ts65Dn mice [3] = settings: TsSAG vs EuVeh and TsVeh; cited from earlier work
[4] = system: cerebellar Purkinje cells of Ts65Dn and euploid mice; settings: cited from earlier work
Ts65Dn mice [5] = settings: cited from earlier work
Ts65Dn mice [6] = settings: SAG-treated mice, first 4 months of life; cited from earlier work
[7] = system: Schaffer collateral-CA1 synapses of Ts65Dn mice; settings: cited from earlier work; for TBS-induced LTP, fEPSP: hippocampal slices from TsSAG mice
Ts65Dn mice [8] = settings: SAG and BrdU co-injected at P0; cited from earlier work
[9] = in vivo; cited from earlier work
Ts65Dn mice [10] = settings: cited from earlier work; remark: listed apart in the source
[11] = system: Sonic hedgehog (Shh) in parotid saliva; test: Sonic hedgehog in parotid saliva of patients with taste dysfunction after oral theophylline (Example 2), ELISA; assay type: in vivo, human; settings: for saliva sonic hedgehog after treatment with oral theophylline: mean ± SEM
[12] = system: Sonic hedgehog (SHH) in nasal mucus; test: Sonic hedgehog in nasal mucus of hyposmic patients after oral theophylline, spectrophotometric ELISA; assay type: in vivo, human
[13] = system: patients with smell loss (hyposmia); test: Smell function (olfactometry, subjective) in hyposmic patients after oral theophylline; assay type: in vivo, human
[14] = system: patients with smell loss (hyposmia); settings: prior hyposmic patients treated with oral theophylline (earlier studies); cited from earlier work
[15] = system: Sonic hedgehog (Shh) in parotid saliva; test: Saliva sonic hedgehog in patients with taste dysfunction after oral theophylline (Example 3), ELISA; assay type: in vivo, human
[16] = system: patients with taste dysfunction; test: Subjective taste acuity and flavor perception in hypogeusic patients after oral theophylline (Example 2); assay type: in vivo, human; settings: for flavor perception, degree of improvement / taste acuity, degree of improvement: mean ± SEM
Protocol: Shh was measured in parotid saliva of both normal subjects and in patients with taste dysfunction of multiple etiologies by use of a sensitive spectrophotometric ELISA assay. Taste dysfunction was defined clinically by both subjective changes of taste acuity and flavor perception and by impaired gustometry. Patients were treated with oral theophylline 200-800 mg daily for 2-10 months with saliva Shh and taste function measured at intervals of 2-8 months.
Subjective statements of taste acuity loss and loss of flavor perception were quantitated by use of a scale from 0-100 with 100 reflecting total loss of taste acuity or flavor perception, 0 reflecting no loss and a number between 0-100 reflecting appropriate degree of loss. […] Mean±SEM of loss degree was measured among all patients and each pathology initiating taste dysfunction.
Saliva Shh and measurements of taste function by use of subjective responses of acuity and flavor perception and in olfactometry was measured at intervals of 2-6 months in these patients.

[17] = system: patients with taste dysfunction; test: Gustometry (DT, RT, ME for four tastants) before and after theophylline (Example 3)
[18] = system: ShhN (sonic hedgehog) in nasal mucus; test: ShhN nasal mucus vs PDE inhibitor comparison (Example 10); assay type: in vivo, human
[19] = hippocampal slices from Ts65Dn mice
[20] = patients with taste dysfunction
[21] = theophylline treated (81), mean ± SEM

## CNC1CCC(N(Cc2cccc(-c3ccncc3)c2)C(=O)c2sc3ccccc3c2Cl)CC1 (stereo not drawn) [SAG]
[1]; TsSAG, n=11
  NMDA/AMPA ratio: 0.19±0.034
[1]; [19]
  NMDA-EPSCs: partially rescues attenuated NMDA-EPSCs in hippocampal slices from Ts65Dn mice
Primary GCP cultures
  mitogenic activity: had mitogenic activity in primary GCP cultures
Ts65Dn mice [2]; Ts65Dn mice, SAG subcutaneously on the day of birth
  GCP number at P6: normalized GCP number
Ts65Dn mice [2]; adult (about 16 weeks) Ts65Dn mice, single injection of SAG on the day of birth
  cerebellar cross-sectional area at the midline and GC density: had the same cross-sectional area and GC density as EuVeh; also recorded: normalizes cerebellar morphology in adult Ts65Dn mice
Ts65Dn mice [2]; euploid mice (EuSAG), single dose of SAG at P0
  GCP number at P6: did not significantly increase GCP number at P6
Ts65Dn mice [3]
  open-field performance (time in periphery or center): no significant differences were observed with TsSAG; also recorded: does not affect open-field performance
[4]; Ts65Dn mice, limited to lobule III, P=0.019
  depression of EPSC after induction of LTD: more depression of EPSC after the induction of LTD
[4]; euploid mice, lobule IX, P=0.005
  PPR values: significantly decreased the PPR values measured in lobule IX
[4]; trisomic mice, lobule III and IX
  EPSC paired-pulse ratios (PPR) of Purkinje cells: did not restore the PPR values in trisomic mice
Ts65Dn mice [5]; Ts65Dn mice
  Y maze performance (alternation, arm entrances; words): did not have an effect on either outcome in Ts65Dn mice; also recorded: does not improve Y maze performance in Ts65Dn mice
Ts65Dn mice [5]; TsSAG mice (EuVeh 78%)
  Y maze alternation: 60%
Ts65Dn mice [6]
  tumor formation or complications: no evidence of tumor formation or obvious complications in the first 4 months of life
[7]; [19]
  TBS-LTP: rescues attenuated TBS-LTP in hippocampal slices from Ts65Dn mice
[7]; t=30 min
  TBS-induced LTP, fEPSP: 132.9±2.2 % of baseline
[7]; t=80 min
  TBS-induced LTP, fEPSP: 127.4±2.0 % of baseline
Ts65Dn mice [8]
  dentate gyrus deficit / proliferation at P6: Dentate gyrus is not affected by SAG treatment
[9]
  crossing of biological barriers: crosses the gut, the placenta, and the blood-brain barrier; also recorded: penetrates the blood-brain barrier
Ts65Dn mice [10]; TsSAG mice
  MWM search strategies: used the same successful strategies as EuVeh; also recorded: normalizes search strategies of Ts65Dn mice in the MWM
Ts65Dn mice [10]; adult Ts65Dn mice, single SAG treatment at P0
  performance in MWM / tasks dependent on hippocampus: normalized performance of adult Ts65Dn mice in the MWM; also recorded: corrects performance of trisomic mice in tasks dependent on hippocampus
Ts65Dn mice [10]; euploid mice
  MWM performance: had no effect on the performance of euploid mice

## Cn1c(=O)c2[nH]cnc2n(C)c1=O [Theophylline, theophylline]
[11]; hypogeusic patients after treatment (66), 200-1000 mg, 2-10 months
  saliva sonic hedgehog after treatment with oral theophylline: 199 ± 20 pmol/mL
[11]; men (61) after treatment
  saliva sonic hedgehog after treatment with oral theophylline: 180 ± 15 pmol/mL
[11]; [20]
  Shh in parotid saliva after oral theophylline: increased saliva Shh; also recorded: increased in parotid saliva to levels above those in normal subjects or in untreated patients
[11]; women (58) after treatment
  saliva sonic hedgehog after treatment with oral theophylline: 213 ± 33 pmol/mL
[12]; PIHH patients (10), mean ± SEM
  sonic hedgehog concentration in nasal mucus, treatment with oral theophylline: 70735 ± 5751^a,a1 (10) pg/ml
[12]; all hyposmic patients (30 in Table 3, 31 in Table 4), mean ± SEM
  sonic hedgehog concentration in nasal mucus, treatment with oral theophylline: 49191 ± 1710^c,a1 (30) pg/ml and 49191 ± 1710^a (31) pg/ml
[12]; allergic rhinitis patients (11), mean ± SEM
  sonic hedgehog concentration in nasal mucus, treatment with oral theophylline: 24460 ± 2610^a,a1 (11) pg/ml
[12]; congenital smell loss patients (9), mean ± SEM
  sonic hedgehog concentration in nasal mucus, treatment with oral theophylline: 3825 ± 474^a,a1 (9) pg/ml
[12]; hyposmic men (17), oral theophylline 400-800 mg daily for 2-10 months, mean ± SEM
  sonic hedgehog concentration in nasal mucus, treatment with oral theophylline: 47952 ± 3085^a,a1 (17) pg/ml
[12]; hyposmic women (13), oral theophylline 400-800 mg daily for 2-10 months, mean ± SEM
  sonic hedgehog concentration in nasal mucus, treatment with oral theophylline: 3859 ± 303^a,a1 (13) pg/ml
[12]; men, oral theophylline
  increase of nasal mucus SHH over the untreated state: 320 times
[12]; patient post anesthesia, oral theophylline
  increase of nasal mucus SHH over the untreated state: 48 times
[12]; patients with PIHH, oral theophylline
  increase of nasal mucus SHH over the untreated state: 46 times
[12]; patients with allergic rhinitis, oral theophylline
  increase of nasal mucus SHH over the untreated state: over 719 times
[12]; patients with congenital smell loss, oral theophylline
  increase of nasal mucus SHH over the untreated state: over 21 times
[12]; patients with hyposmia, oral theophylline
  SHH levels in nasal mucus versus untreated state: significantly increased SHH levels in nasal mucus
[12]; post general anesthesia patient (1)
  sonic hedgehog concentration in nasal mucus, treatment with oral theophylline: 57 (1) pg/ml
[12]; women, oral theophylline
  increase of nasal mucus SHH over the untreated state: 17 times
[13]; PIHH (10)
  smell improvement, patient number: 8
  smell improvement, percent of patients: 80%
[13]; all treated patients (31), oral theophylline
  smell improvement, patient number: 19
[13]; all treated patients, oral theophylline
  smell improvement, percent of patients: 60% and 61%
[13]; allergic rhinitis (11)
  smell improvement, patient number: 5
  smell improvement, percent of patients: 45%
[13]; congenital (9)
  smell improvement, patient number: 5
  smell improvement, percent of patients: 56%
[13]; post general anesthesia (1)
  smell improvement, patient number: 1
  smell improvement, percent of patients: 100%
[14]
  smell improvement, percent of patients: over 50%
[15]; PIHH (27), mean ± SEM
  saliva sonic hedgehog after oral theophylline: 210 ± 12 pmol/mL
[15]; allergic rhinitis (26), mean ± SEM
  saliva sonic hedgehog after oral theophylline: 212 ± 14^+ pmol/ml
[15]; anesthesia induced (2)
  saliva sonic hedgehog after oral theophylline: 151 pmol/mL
[15]; congenital (10), mean ± SEM
  saliva sonic hedgehog after oral theophylline: 132 ± 23 pmol/mL
[15]; head injury (14), mean ± SEM
  saliva sonic hedgehog after oral theophylline: 115 ± 15 pmol/mL
[15]; [20]
  increase of saliva Shh levels by theophylline: ~2 fold
[15]; post radiation (1)
  saliva sonic hedgehog after oral theophylline: 145 pmol/mL
[15]; theophylline treated patients (81), mean ± SEM
  saliva sonic hedgehog: 102 ± 10 pmol/mL
[16]; after oral theophylline
  patients with improvement in both subjective taste acuity and flavor perception: about 60%
[16]; all patients (79)
  flavor perception, improvement number: 45
  flavor perception, percent improved: 63%
  taste acuity, percent improved: 63%
  flavor perception, degree of improvement: 24 ± 4%
  taste acuity, degree of improvement: 28 ± 4^+ %
[16]; all patients (79), oral theophylline
  taste acuity, improvement number: 45
[16]; men (38)
  flavor perception, improvement number: 22
  flavor perception, percent improved: 58%
  taste acuity, improvement number: 21
  taste acuity, percent improved: 55%
  flavor perception, degree of improvement: 18 ± 4%
  taste acuity, degree of improvement: 20 ± 5%
[16]; [20]
  taste function after theophylline: improved both subjective taste function and gustometry
[16]; women (41)
  flavor perception, improvement number: 23
  flavor perception, percent improved: 54%
  taste acuity, improvement number: 24
  taste acuity, percent improved: 59%
  flavor perception, degree of improvement: 36 ± 6%
  taste acuity, degree of improvement: 35 ± 6%
[17]; [20]
  taste / gustometric function after theophylline: improved subjectively in taste function; also recorded: improved gustometric functions of treated patients
[17]; [21]
  HCl DT: 3.6 ± 0.2
  HCl ME: 54 ± 5
  HCl RT: 3.7 ± 0.3
  NaCl DT (detection threshold): 3.4 ± 0.2
  NaCl ME (magnitude estimation): 58 ± 5
  NaCl RT (recognition threshold): 3.6 ± 0.2
  sucrose DT: 3.3 ± 0.2
  sucrose ME: 49 ± 5
  sucrose RT: 3.6 ± 0.2
  urea DT: 3.9 ± 0.3
  urea ME: 54 ± 5
  urea RT: 3.9 ± 0.3

## O=C1CCc2cc(OCCCCc3nnnn3C3CCCCC3)ccc2N1 [cilostazol]
[18]; Patient ID No. 7, 100 mg cilostazol once per day orally for 4 months
  sonic hedgehog levels in nasal mucus, mean: 769 pg/mL

## O=C(Nc1c(Cl)cncc1Cl)c1ccc(OC(F)F)c(OCC2CC2)c1 [roflumilast]
[18]; Patient ID No. 11, 500 micrograms daliresp (roflumilast) orally once per day for 4 months
  sonic hedgehog levels in nasal mucus: 6660 pg/mL
